From patent US20230203043A1, “NOVEL IMIDAZOPYRAZINE DERIVATIVES” (Hoffmann-La Roche Inc., priority 2020, published 2023)
Where a name gives a salt, the structure may show the parent alone.

tested on: Acinetobacter baumannii ATCC17961; experiment: Antimicrobial susceptibility testing: 90% growth inhibitory concentration (IC90) determination in Iso-Sensitest broth, OD600 growth; assay type: cell-based; settings: Acinetobacter baumannii, ATCC17961, 16 h, read-out: A. baumannii ATCC 17961 IC90 (uM), strain ATCC 17961, OD600 growth over 16 h
How it was run: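 Twofold compound dilutions (e.g. 50 to 0.097 μM final) in Iso-Sensitest broth with ~5×10^(5) CFU/ml, 35±2 °C. OD600 read every 20 min over 16 h; IC90 from growth inhibition during logarithmic phase.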

Compound | IC90 [µM]
Cc1cc(Nc2nccn3c(-c4c[nH]nc4C(F)(F)F)cnc23)ccc1C(=O)N1CCN(C(=O)[C@@H]2C[C@](C)(O)CN2)CC1 [Example 462, formic acid; [4-[(2S,4S)-4-hydroxy-4-methylpyrrolidine-2-carbonyl]piperazin-1-yl]-[2-methyl-4-[[3-[3-(trifluoromethyl)-1H-pyrazol-4-yl]imidazo[1,2-a]pyrazin-8-yl]amino]phenyl]methanone] | 0.964
CCc1cc(Nc2nccn3c(-c4cn(CC(F)F)nc4C(F)(F)F)cnc23)ccc1C(=O)NCC1CC1N (stereo not shown) [Example 641, N-((2-aminocyclopropyl)methyl)-4-((3-(1-(2,2-difluoroethyl)-3-(trifluoromethyl)-1H-pyrazol-4-yl)imidazo[1,2-a]pyrazin-8-yl)amino)-2-ethylbenzamide formate] | 0.231
CCc1cc(Nc2nccn3c(-c4cn(C5COC5)nc4C(F)(F)F)cnc23)ccc1C(=O)NCCOCCN [Example 241, N-[2-(2-aminoethoxy)ethyl]-2-ethyl-4-[[3-[1-(oxetan-3-yl)-3-(trifluoromethyl)pyrazol-4-yl]imidazo[1,2-a]pyrazin-8-yl]amino]benzamide formate] | 0.322
CCc1cc(Nc2nccn3c(-c4cn(CC(F)F)nc4C(F)(F)F)cnc23)ccc1C(=O)NCC(=O)N1CCC(CN)C1 (stereo not shown) [Example 527, N-[2-[3-(aminomethyl)pyrrolidin-1-yl]-2-oxo-ethyl]-4-[[3-[1-(2,2-difluoroethyl)-3-(trifluoromethyl)pyrazol-4-yl]imidazo[1,2-a]pyrazin-8-yl]amino]-2-ethyl-benzamide formate] | 0.306
O=C(c1ccc(Nc2nccn3c(-c4c[nH]nc4C(F)(F)F)cnc23)cc1Cl)N1CCN(C(=O)C2(O)CCNCC2)CC1 [Example 449, [2-chloro-4-[[3-[3-(trifluoromethyl)-1H-pyrazol-4-yl]imidazo[1,2-a]pyrazin-8-yl]amino]phenyl]-[4-(4-hydroxypiperidine-4-carbonyl)piperazin-1-yl]methanone formate] | 0.301
Cc1cc(Nc2nccn3c(-c4cn(CC#N)nc4C(F)(F)F)cnc23)cc(F)c1C(=O)N1CCN(C(=O)[C@H](C)N)CC1 [Example 682, 2-(4-(8-((4-(4-(L-alanyl)piperazine-1-carbonyl)-3-fluoro-5-methylphenyl)amino)imidazo[1,2-a]pyrazin-3-yl)-3-(trifluoromethyl)-1H-pyrazol-1-yl) acetonitrile formate] | 0.329
C[C@@H](NC(=O)c1ccc(Nc2nccn3c(-c4c[nH]nc4C(F)(F)F)cnc23)cc1Cl)C(=O)N[C@H]1CCNC1 [Example 96, 2-chloro-N-[(2R)-1-oxo-1-[[(3S)-pyrrolidin-3-yl]amino]propan-2-yl]-4-[[3-[3-(trifluoromethyl)-1H-pyrazol-4-yl]imidazo[1,2-a]pyrazin-8-yl]amino]benzamide formate] | 1.63
CCc1cc(Nc2nccn3c(-c4cn(CC#N)nc4C(F)(F)F)cnc23)ccc1C(=O)N[C@H](C)C(=O)N1CC[C@@H](N)C1 [Example 732, N-[(1R)-2-[(3R)-3-aminopyrrolidin-1-yl]-1-methyl-2-oxo-ethyl]-4-[[3-[1-(cyanomethyl)-3-(trifluoromethyl)pyrazol-4-yl]imidazo[1,2-a]pyrazin-8-yl]amino]-2-ethyl-benzamide formate] | 0.48

same assay, conditions: Acinetobacter baumannii, ATCC17961, 16 h, strain ATCC 17961, OD600 growth over 16 h, read-out: A. baumannii ATCC 17961 IC90

Compound | IC90 [µM]
CCc1cc(Nc2nccn3c(-c4cn(CC(F)F)nc4C(F)(F)F)cnc23)ccc1C(=O)N[C@@H](C)CN [Example 57, N-[(2S)-1-aminopropan-2-yl]-4-[[3-[1-(2,2-difluoroethyl)-3-(trifluoromethyl)pyrazol-4-yl]imidazo[1,2-a]pyrazin-8-yl]amino]-2-ethylbenzamide] | 0.202
CCc1cc(Nc2nccn3c(-c4cn(CCF)nc4C(F)(F)F)cnc23)ccc1C(=O)NCCOC[C@H](C)N [Example 158, N-[2-[(2S)-2-aminopropoxy]ethyl]-2-ethyl-4-[[3-[1-(2-fluoroethyl)-3-(trifluoromethyl)pyrazol-4-yl]imidazo[1,2-a]pyrazin-8-yl]amino]benzamide] | 4.03
CCc1cc(Nc2nccn3c(-c4cn(CC(F)F)nc4C(F)(F)F)cnc23)ccc1C(=O)NCCNC(=O)[C@@H]1CCCN1 [Example 35, (2S)-N-[2-[[4-[[3-[1-(2,2-difluoroethyl)-3-(trifluoromethyl)pyrazol-4-yl]imidazo[1,2-a]pyrazin-8-yl]amino]-2-ethylbenzoyl)amino]ethyl]pyrrolidine-2-carboxamide] | 0.185
C#CCn1cc(-c2cnc3c(Nc4ccc(C(=O)NCCOCC(C)(C)N)c(CC)c4)nccn23)c(C(F)(F)F)n1 [Example 44, N-[2-(2-amino-2-methylpropoxy)ethyl]-2-ethyl-4-[[3-[1-prop-2-ynyl-3-(trifluoromethyl)pyrazol-4-yl]imidazo[1,2-a]pyrazin-8-yl]amino]benzamide] | 0.059

The remaining lines, values ahead:

IC90 [µM] | Compound
0.695 | Cc1cc(Nc2nccn3c(-c4c[nH]nc4C(F)(F)F)cnc23)ccc1C(=O)N1CCN(C(=O)[C@H]2CCNC2)CC1 [Example 333, [2-methyl-4-[[3-[3-(trifluoromethyl)-1H-pyrazol-4-yl]imidazo[1,2-a]pyrazin-8-yl]amino]phenyl]-[4-[(3S)-pyrrolidine-3-carbonyl]piperazin-1-yl]methanone]
0.38 | Cc1cc(Nc2nccn3c(-c4cn(CC#N)nc4C(F)(F)F)cnc23)cc(F)c1C(=O)N1CCN(C(=O)[C@H]2C[C@@H](N)C2)CC1 [Example 699, 2-(4-(8-((4-(4-((1s,3s)-3-aminocyclobutane-1-carbonyl)piperazine-1-carbonyl)-3-fluoro-5-methylphenyl)amino)imidazo[1,2-a]pyrazin-3-yl)-3-(trifluoromethyl)-1H-pyrazol-1-yl) acetonitrile formate]
0.916 | CCc1cc(Nc2nccn3c(-c4cn(CC(F)F)nc4C(F)F)cnc23)ccc1C(=O)N1CCN(C(=O)[C@H](N)C(C)C)CC1 [Example 768, (R)-2-amino-1-(4-(4-((3-(1-(2,2-difluoroethyl)-3-(difluoromethyl)-1H-pyrazol-4-yl)imidazo[1,2-a]pyrazin-8-yl)amino)-2-ethylbenzoyl)piperazin-1-yl)-3-methylbutan-1-one]
0.371 | CCc1cc(Nc2nccn3c(-c4c[nH]nc4C(F)(F)F)cnc23)ccc1C(=O)NC [Example 350, 2-ethyl-N-methyl-4-[[3-[3-(trifluoromethyl)-1H-pyrazol-4-yl]imidazo[1,2-a]pyrazin-8-yl]amino]benzamide]
0.369 | CCc1cc(Nc2nccn3c(-c4c[nH]nc4C(F)(F)F)cnc23)ccc1C(=O)NCCNC(=O)N1CC[C@@H](N)C1 [Example 517, (R)-3-amino-N-(2-(2-ethyl-4-((3-(3-(trifluoromethyl)-1H-pyrazol-4-yl)imidazo[1,2-a]pyrazin-8-yl)amino)benzamido)ethyl) pyrrolidine-1-carboxamide formate]
0.11 | O=C(c1ccc(Nc2nccn3c(-c4cn(Cc5cc[nH]n5)nc4C(F)(F)F)cnc23)cc1Cl)N1CCNCC1 [Example 177, [2-chloro-4-[[3-[1-(1H-pyrazol-3-ylmethyl)-3-(trifluoromethyl)pyrazol-4-yl]imidazo[1,2-a]pyrazin-8-yl]amino]phenyl]-piperazin-1-ylmethanone]
0.969 | NC1CCC(NC(=O)c2ccc(Nc3nccn4c(-c5c[nH]nc5C(F)(F)F)cnc34)cc2Cl)CC1 (stereo not shown) [Example 385, N-(4-aminocyclohexyl)-2-chloro-4-[[3-[3-(trifluoromethyl)-1H-pyrazol-4-yl]imidazo[1,2-a]pyrazin-8-yl]amino]benzamide]
